Data from patent publication US4051252A, “3-Aminoindazole-1 and 2-carboxylic acid derivatives” (Bayer Aktiengesellschaft, priority 1974, dated 1977).

Assays:
rats [1] = assay: Yeast Antipyretic Test; format: in vivo, rat; conditions: oral, raised body temperature lowered by 1° C in 50% of animals
Protocol: Antipyretic action can be observed in rats to which a beer yeast suspension has been administered subcutaneously. The body temperature is measured rectally before and 16 hours after administration of the beer years. The substance to be tested is administered orally to groups of 5 rats in which the body temperature has risen by at least 1° C. Thereafter, the temperature drop is measured rectally with a drop in the body temperature of at least 1° C being assessed as an antipyretic effet. The Ed50 is the dose at which, in 50% of the animals employed, the raised body temperature is lowered by 1° C upon administration of the active substance according to the invention.

tails of rats = assay: Tail Flick Test (analgesic action); format: in vivo; conditions: Rattus norvegicus; oral, male rats; reaction time of 50% of animals lengthened to at least 20 seconds
From the text: Analgesic action can be observed in the tail flick test on the tails of rats in which the tail of male rats is irradiated with a focused heat ray. In this test, untreated animals react after an average irradiation time of 5.1±0.8 seconds (reaction time) by drawing away the tail. Under the influence of analgesically active compounds, this reaction time becomes longer. Active compounds which after administration prolong the reaction time of the animals to at least 20 seconds are considered to be analgesically active. Five animals are employed per dose. The ED50 is the dose which on average lengthens the reaction time of 50% of the animals employed to at least 20 seconds [see generally Wolff et al., J. Clin. Invest., 19, 659-680 (1940)].

[2] = Acute Toxicity (oral, mouse); conditions: in vivo
From the text: The pharmacological properties can be conveniently observed in recognized in vivo models.

rats [3] = assay: Phenylquinone Writhing Test (analgesic activity); format: in vivo; conditions: Rattus norvegicus, oral, 60 minutes before phenylquinone i.p., writhing reduced to half of control
Protocol: Analgesic activity can also be observed in the phenylquinone writhing test in which 100 μg of phenylquinone, dissolved in 0.5 ml of 5% strength alcohol, are injected intraperitoneally into rats. A few minutes after administration, the animals show the characteristic writhing reaction, which consists of the animals showing extreme backward extension of the hind paws, flexing the back and lifting the tail. At the same time, wave-like contractions frequently pass over the abdominal muscles. The inhibition of this writhing syndrome is assessed to be an analgesic effect. The substance to be investigated is administered 30 minutes (in the case of subcutaneous administration) or 60 minutes (in the case of oral administration) before the injection of phenylquinone. Five animals are employed per compound and per dose. The ED50 is the dose at which the number of writhing reactions in the animals employed is on average reduced to half that of the control group [see generally: Siegmung et al., Proc. Soc. exp. Biol. Med. 95, 729-731 (1957)].

paw of rats = assay: Carrageenin Anti-inflammatory Test (carrageenin edema on the paw of rats); format: in vivo, rat; conditions: one hour before carrageenin, measured 2 1/2 and 3 hours after carrageenin; for ED50: Rattus norvegicus, po
Protocol: The anti-inflammatory (antiphlogistic and anti-edematous) action of the compounds can be conveniently observed by the inhibition of carrageenin edema on the paw of rats. In this test, a reference measurement on the normal paws of rats is carried out half an hour before and half an hour after oral administration of the test compound, using an antiphlogmeter. One hour after administration of the substance, the edema is started by injecting a carrageenin solution into the planta pedis of one hind paw at 21/2 hours and 3 hours after the carrageenin injection, the effect on the edematous paw is measured. The relative paw volume is expressed as a percentage of the reference measurement (=100%). The ED50 is the dose at which, in 50% of the animals employed per dose, the difference between the relative paw volume of the treated animals and the relative paw volume of the 10 control groups is 100.

SMILES	ED50 (rats [1])	ED50 (tails of rats)	LD50 [2]	ED50 (rats [3])	ED50 (paw of rats)	ED50 (oral), Carrageenin Anti-inflammatory Test (paw of rats)
Nc1n[nH]c2ccc(C(F)(F)F)cc12 [3-amino-5-trifluoromethylindazole, reference compound]	48 mg/kg	67 mg/kg	228 mg/kg	61 mg/kg		
CCOC(=O)n1nc(N)c2cc(C(F)(F)F)ccc21 [3-amino-5-trifluoromethylindazole-1-carboxylic acid ethyl ester]			> 5000 mg/kg	1 mg/kg		
CCNC(=O)n1nc(N)c2cc(C(F)(F)F)ccc21 [3-amino-5-trifluoromethylindazole-1-carboxylic acid ethylamide]	51 mg/kg	53 mg/kg	> 1000 mg/kg			
COC(=O)n1nc(N)c2cc(C(F)(F)F)ccc21 [3-amino-5-trifluoromethylindazole-1-carboxylic acid methyl ester]	~50 mg/kg	41 mg/kg				
CCOC(=O)n1nc(N)c2ccc(Cl)cc21 [3-amino-6-chloroindazole-1-carboxylic acid ethyl ester]			~2000 mg/kg		~77 mg/kg	68 (44-138) mg/kg
COC(=O)n1nc(N)c2ccc(Cl)cc21 [3-amino-6-chloroindazole-1-carboxylic acid methyl ester]	~20 mg/kg	30 mg/kg	> 1000 mg/kg	~10 mg/kg	~40 mg/kg	
CCCCOC(=O)n1nc(N)c2ccc(Cl)cc21 [3-amino-6-chloroindazole-1-carboxylic acid n-butyl ester]			> 1000 mg/kg		67 mg/kg	
CN(C)C(=O)n1nc(N)c2ccc(Cl)cc21 [3-amino-6-chloroindazole-1-carboxylic acid-dimethylamide]	41 mg/kg		> 1000 mg/kg			
CN(C)C(=O)n1nc2cc(Cl)ccc2c1N [3-amino-6-chloroindazole-2-carboxylic acid dimethylamide]	23 mg/kg			17 mg/kg		
CCOC(=O)n1nc(N)c2ccc(C(F)(F)F)cc21 [3-amino-6-trifluoromethylindazole-1-carboxylic acid ethyl ester]	~50 mg/kg	53 mg/kg				
CCOC(=O)n1nc(N)c2ccccc21 [3-aminoindazole-1-carboxylic acid ethyl ester]			~3000 mg/kg		~47 mg/kg	
CCOC(=O)n1nc(N(C)C)c2ccc(Cl)cc21 [3-dimethylamino-6-chloroindazole-1-carboxylic acid ethyl ester]	5.2 mg/kg		> 5000 mg/kg	17 mg/kg		
CN(C)C(=O)n1nc(NC=O)c2ccc(C(F)(F)F)cc21 [3-formylamino-6-trifluoromethyl-1-carboxylic acid dimethylamide]						92 (44-216) mg/kg
CN(C)C(=O)n1nc(NC=O)c2cc(C(F)(F)F)ccc21 [3formylamino-5-trifluoromethylindazole-1-carboxylic acid dimethylamide]	14 mg/kg		> 1000 mg/kg			
